≈ marks a conversion by molar mass, not a printed value.

For the data set the following is noted: buffer; pH 7.4; 200.0 µM.
Take `COc1cc(OC)c(C(=O)OCC(=O)Nc2ccc(S(=O)(=O)N3CCOCC3)cc2)cc1OC`: the kinetic solubility (usually solubility judged after dilution from a stock solution rather than from solid) came to 0.0096 mg/mL (≈ 19.4 µM).

Regarding `CCn1c(=O)ccc2cc([N+](=O)[O-])ccc21`, the solubility (kinetic) is greater than 0.0327 mg/mL. Under `CCCCC(=O)NC1(C(F)(F)F)NC(=O)N(C)C1=O` (configuration not stated) stands greater than 0.0422 mg/mL; under `COc1ccc(CN(C)C(=O)CNC(=O)c2ccc(C)cc2)cc1`, greater than 0.049 mg/mL. Then `CC(=O)c1ccc(-c2ccc(C(=O)NCC3CCCO3)o2)cc1` (configuration not stated), with greater than 0.047 mg/mL. Under `CN(C(=O)c1cncc(Br)c1)C1C2CC3CC(C2)CC1C3` (configuration not stated) stands 0.0481 mg/mL (≈ 138 µM). On to `Cc1ccc(S(=O)(=O)c2c[nH]c3ccc(Cl)cc3c2=O)cc1`, for which the solubility (kinetic) was less than 0.0007 mg/mL. Then `COc1cc(C#N)c(N=C(SCC#N)N2CCOCC2)cc1OC`, with greater than 0.052 mg/mL.

`COc1cc(NC(c2ccccc2)c2ccccc2)cc(OC)c1OC` gave a solubility (kinetic) greater than 0.0524 mg/mL. Then `CC(C)(C)OC(=O)N1Cc2ccccc2C[C@H]1C(=O)NC1CCCC1`, with greater than 0.0517 mg/mL; and `CCC(=O)OC1(Cc2ccc(CC)cc2)CC(C)N(C)CC1C.Cl` (configuration not stated), with 0.0469 mg/mL; and `COc1ccc(CCNC(=O)c2cccs2)cc1OC`, with 0.0338 mg/mL (≈ 116 µM). Then `CCCC(C)NC(=O)Cc1ccccc1` (configuration not stated), with 0.03 mg/mL (≈ 146 µM); and `Cc1ccccc1NC(=O)NCCCN1CCCC1=O`, with greater than 0.0413 mg/mL.

The compound `Oc1ccc(-c2cnc3ccccc3n2)cc1` displayed a kinetic solubility of 0.0269 mg/mL (≈ 121 µM). Under `O=C1Nc2ccc(Cl)cc2C(C#CC2CC2)(C(F)(F)F)O1` (configuration not stated) stands 0.0196 mg/mL (≈ 62.1 µM).

In turn, `COc1ccc(C(=O)NCCCCc2ccccc2)cc1` came in with a kinetic solubility of 0.0029 mg/mL (≈ 10.2 µM). Then `O=[N+]([O-])c1ccc(S(=O)(=O)c2ccccc2)nc1`, with greater than 0.0396 mg/mL; and `CCOc1ccc(S(=O)(=O)Nc2cnc3ccccc3c2)cc1`, with greater than 0.0493 mg/mL.

The compound `CC(Sc1ccccc1F)C(=O)Nc1ccc2c(c1)OCCO2` (configuration not stated) registered a kinetic solubility greater than 0.05 mg/mL. Under `COc1cc(CNCc2ccco2)cc(OC)c1O.Cl` stands 0.0414 mg/mL. The compound `O=C1CSC(=S)N1c1cccc(O)c1` returned a solubility (kinetic) of 0.029 mg/mL (≈ 129 µM). Under `O=C(c1ccccc1)c1nc2c(n1O)CCCCC2` stands greater than 0.0384 mg/mL. Regarding `O=c1[nH]c(O)c(C=Nc2ccc(Cl)c(C(F)(F)F)c2)c(=O)[nH]1`, the solubility (kinetic) amounted to 0.0017 mg/mL (≈ 5.1 µM). Then `O=C(c1ccco1)N1CCN(C(=O)c2ccccc2OCc2ccccc2)CC1`, with greater than 0.0586 mg/mL; and `Cc1nn(CC(=O)N2CCC(C)CC2)c(=O)c2cccn12`, with greater than 0.0433 mg/mL; and `CNC(=S)N1CCN(CCNC2=CC(=O)CC(C)(C)C2)CC1`, with 0.0444 mg/mL (≈ 137 µM). Under `CC(C)[C@H](NC(=O)c1ccc(Cl)cc1)C(=O)OCC(=O)N1CCN(c2ccccc2)CC1` stands 0.0525 mg/mL (≈ 115 µM); under `O=C1CCC(C(=O)N2CCOCC2)CN1Cc1ccc(Cl)cc1` (configuration not stated), greater than 0.0505 mg/mL.

As to `CS(=O)(=O)c1ccc(Cl)c(NC(=O)CN2CCN(C(=O)c3cccs3)CC2)c1`, the kinetic solubility was greater than 0.0663 mg/mL. Regarding `CC(C)NC(=O)N(Cc1ccccc1)Cc1cccs1`, the kinetic solubility amounted to 0.0418 mg/mL (≈ 145 µM). Under `CC(C)(C)c1ccc(C(=O)N2CCN(Cc3ccccc3)CC2)cc1` stands 0.0285 mg/mL (≈ 84.7 µM); under `Cc1cccc(C(=O)NCCCn2ccnc2)c1C`, 0.0376 mg/mL (≈ 146 µM); under `Cc1ccc(NC(=O)COC(=O)c2cc(=O)c3ccccc3o2)c(Br)c1`, greater than 0.0624 mg/mL.

`CCOc1ccc(C(=O)OCC(=O)N2CCCC2)cc1OCC` came in with a kinetic solubility of 0.0383 mg/mL (≈ 119 µM). Under `CC(=O)Nc1cc2c3c(c1)CCN3C(=O)CC2` stands greater than 0.0345 mg/mL. For `C=CCNC(=O)COC(=O)CCC(=O)c1cccs1`, the solubility (kinetic) is greater than 0.0422 mg/mL. Then `CC(=O)Nc1cccc2c1Cc1ccccc1-2`, with 0.0117 mg/mL (≈ 52.4 µM); and `CCOC(=O)C1=C(N)Oc2cc(O)ccc2C1c1cccc(Cl)c1` (configuration not stated), with less than 0.0007 mg/mL. Then `O=C1COc2ccc(C(=O)CCl)cc2N1`, with greater than 0.0338 mg/mL; and `O=C(c1ccco1)N1CCN(c2ccc([N+](=O)[O-])cc2F)CC1`, with 0.007 mg/mL (≈ 21.9 µM); and `CN(Cc1ccccc1)C(=O)c1ccc(S(=O)(=O)N(C)c2ccccc2)cc1`, with 0.0261 mg/mL (≈ 66.2 µM). Then `COc1ccc(C(=O)O/N=C(\N)c2ccccc2)cc1OC`, with 0.0238 mg/mL (≈ 79.3 µM); and `CCOC(=O)c1ccccc1NC(=O)Cc1ccc(S(=O)(=O)N2CCCC2)s1`, with 0.0175 mg/mL (≈ 41.4 µM).

On to `Cc1cc(=O)[nH]c(SCC(=O)Nc2ccc(F)c([N+](=O)[O-])c2)n1`, for which the solubility (kinetic) was greater than 0.0507 mg/mL. Then `O=C(CNC(=O)c1ccccc1F)c1ccc(Br)cc1`, with 0.0038 mg/mL (≈ 11.3 µM); and `CC(=O)Nc1ccc(N/C=C/C(=O)c2ccc(C)cc2)cc1`, with 0.0032 mg/mL (≈ 10.9 µM). Take `C/C(=C\C(=O)c1sccc1Cl)N(C)C`: the solubility (kinetic) is greater than 0.0345 mg/mL. Then `Cc1cccc(C(=O)NCCCNC(=O)c2cccnc2)c1`, with 0.0416 mg/mL (≈ 140 µM); and `Cc1ccc(CNS(=O)(=O)c2ccc(F)c(F)c2)n1C`, with greater than 0.045 mg/mL. Under `NC(=O)NNC(=S)Nc1cccc2ccccc12` stands greater than 0.039 mg/mL; under `CC1Cc2ccccc2N1CC(=O)NC(=O)NC1CCCCC1` (configuration not stated), 0.0246 mg/mL (≈ 78 µM).

The values are drawn from PubChem BioAssay AID1996.
